Laboratory results taken from patent publication US4863935A, “Mitomycin compounds having useful anti-tumor activity” (priority 1986, dated 1989).

Legend:
Sarcoma 180 solid tumour = experiment: ED50 against Sarcoma 180 solid tumour implanted in mice; format: in vivo, male mouse (ddy strain); conditions: for (CI)c: (CI of test compound)/(CI of mitomycin C), CI = LD50/ED50; for ED50: Mus musculus, Sarcoma-180, iv, 168 h, i.v. (tail vein) 24 h after implantation, tumour volume at 7 days, dose for T/C of 0.5
Description: With regard to the so-called chemotherapeutic index viz. the CI value against sarcoma 180 solid tumour, expressed by the formula: […]
(§1) As used herein, the term "LD50 " denotes the acute toxicity. The term "ED50 " denotes the administered amount needed for reducing the volume of Sarcoma 180 solid tumours in animals to 50% of the corresponding tumour volume in control (untreated) animals. The term "WBC4000 " denotes the minimum dose of the drug needed to reduce the number of peripheral leucocytes to 4000/mm^3. A greater TI value results in a broader tolerance to the drug, which is advantageous for higher anti-tumour activity and decreased toxicity. The term "T" used herein denotes the average survival days of the test animals administered with the test compound. The term "C" denotes the average survival days of the control (untreated) animals. The term "OPD" denotes the dose of the drug resulting in the highest survival ratio. The term "ILS30 " denotes a 30% increase of life-span.
the term (CI)c denotes (CI of the test compound)/(CI of mitomycin C), and
5×10^6 sarcoma 180 solid tumor cells were abdominally implanted into ddy mice. 7 days after this, ascites cells were sampled. The cells were washed once with a sterilized physiological saline and were used to prepare a cell suspension containing 5×10^7 cells per ml of a sterilized physiological saline. On each occasion, 0.1 ml of the cell suspension was subcutaneously implanted under the skin of the right armpit of a male mouse (ddy strain; body weight 20±2 g). The test compound which was dissolved in a physiological saline with or without addition of Tween 80 was injected into the tail vein of each animal of a group consisting of 5 mice at a dose of 0.1-0.2 ml 24 hours after the implantation of the tumor cells.
The anti-tumor activity was determined in the following manner:
7 days after the implantation, the major axis (a) and the minor axis (b) of the tumour were measured to calculate a value of (a×b^2)/2 which corresponds to the volume of the tumour. The antitumour activity was expressed by the ratio of the volume of the tumour (T) of the group of animals administered with the test compound to the corresponding volume of tumours (C) of the untreated animals.
On graph paper, T/C was plotted on the ordinate using an arithmetic scale and the administered amount of test compound was plotted on the abscissa using a logarithmic scale. The relationship between the dose and T/C was shown by a straight line determined by the method of least squares, from which ED50 viz. a dose corresponding to T/C of 0.5 was obtained.

[1] = LD50 acute toxicity, ddy mice, single abdominal injection; conditions: mouse, in vivo, ip, 5 ddy mice, 14 days observation, Behrens-Koerber's method
Description: as §1
LD50, ED50 and WBC4000 were respectively determined as follows:
Each animal of the test group, consisting of 5 ddy mice, was administered once with a test compound by abdominal injection. […] To determine the LD50 value, Behrens-Koerber's method was applied.

[2] = test system: lymphocytic Leukemia P-388; experiment: Anti-tumour activity against lymphocytic Leukemia P-388 in mice; format: in vivo, mouse, female of CDF strain; conditions: for (ILSmax)c: (ILSmax of test compound)/(ILSmax of mitomycin C), ILS=(T-C)/C×100; for (TI)c: (TI of test compound)/(TI of mitomycin C), TI = OPD/dose which results in ILS30; for ED (optimal dose, highest survival) / ED (30% increase of life-span): Mus musculus, P388, ip, i.p. 24 h after implantation; for ED (optimal dose, highest survival): dose resulting in the highest survival ratio, 30 days, read-out: OPD; for ED (30% increase of life-span): read-out: Dose needed to give ILS30
Description: Also, their therapeutic indexes, expressed by the formula:
TI=(OPD)/(dose which results in ILS30),
against lymphocytic Leukemia P-388 and the maximum increased life spans (ILSmax), defined by the formula: […]
as §1
The experiment was carried out in the following manner. 1×10^6 lymphocytic Leukemia P-388 tumour cells were abdominally implanted into each mouse of a group consisting of 5 mice (body weight about 22 g; female of CDF strain). 24 hours after implantation, a physiological saline solution (0.2 ml) containing the test compound with or without addition of Tween 80 was abdominally given to the test animal.
Table 7 indicates anti-tumour activities of selected Compounds (I) against lyphocytic Leukemia P-388.

CNC(=O)SCCNC1=C(C)C(=O)C2=C(C1=O)[C@@H](COC(N)=O)[C@@]1(OC)[C@H]3N[C@H]3CN21 [Compound 1, 7-N--(2-methylaminocarbonylthioethyl)mitomycin C]
(CI)c (Sarcoma 180 solid tumour): > 1.39
ED50 (Sarcoma 180 solid tumour): 25.8 mg/kg
LD50 at 336 h [1]: > 100 mg/kg
(ILSmax)c [2]: 1.44
(TI)c [2]: 1.33
ED (optimal dose, highest survival) [2]: 25 mg/kg
ED (30% increase of life-span) [2]: 0.78 mg/kg

CCN(CC)C(=O)SCCNC1=C(C)C(=O)C2=C(C1=O)[C@@H](COC(N)=O)[C@@]1(OC)[C@H]3N[C@H]3CN21 [Compound 4, 7-N--(2-diethylaminocarbonylthioethyl)mitomycin C]
(CI)c (Sarcoma 180 solid tumour): 1.64
ED50 (Sarcoma 180 solid tumour): 13.3 mg/kg
LD50 at 336 h [1]: 45 mg/kg
(ILSmax)c [2]: > 1.21
(TI)c [2]: 1.18
ED (optimal dose, highest survival) [2]: 25 mg/kg
ED (30% increase of life-span) [2]: 2.02 mg/kg

CO[C@@]12[C@H](COC(N)=O)C3=C(C(=O)C(C)=C(NCCSC(=O)NC(C)(C)C)C3=O)N1C[C@@H]1N[C@@H]12 [Compound 5, 7-N--(2-t-butylaminocarbonylthioethyl)mitomicin C]
(CI)c (Sarcoma 180 solid tumour): 1.22
ED50 (Sarcoma 180 solid tumour): 8.8 mg/kg
LD50 at 336 h [1]: 30 mg/kg
(ILSmax)c [2]: > 1.17
(TI)c [2]: 1.80
ED (optimal dose, highest survival) [2]: 25 mg/kg
ED (30% increase of life-span) [2]: 1.32 mg/kg

COC(=O)[C@@H]1CCCN1C(=O)SCCNC1=C(C)C(=O)C2=C(C1=O)[C@@H](COC(N)=O)[C@@]1(OC)[C@H]3N[C@H]3CN21 [Compound 6, 7-N--[2-((S)--2-methoxycarbonylpyrrolidino)carbonylthioethyl]mitomycin C]
(CI)c (Sarcoma 180 solid tumour): 1.77
ED50 (Sarcoma 180 solid tumour): 10.1 mg/kg
LD50 at 336 h [1]: > 50 mg/kg
(ILSmax)c [2]: > 1.82
(TI)c [2]: 9.09
ED (optimal dose, highest survival) [2]: 100 mg/kg
ED (30% increase of life-span) [2]: 1.1 mg/kg

CO[C@@]12[C@H](COC(N)=O)C3=C(C(=O)C(C)=C(NCCSC(=O)NC(C)C)C3=O)N1C[C@@H]1N[C@@H]12 [Compound 7, 7-N--(2-isopropylaminocarbonylthioethyl)mitomycin C]
(CI)c (Sarcoma 180 solid tumour): 2.29
ED50 (Sarcoma 180 solid tumour): 7 mg/kg
LD50 at 336 h [1]: 45 mg/kg
(ILSmax)c [2]: > 1.76
(TI)c [2]: 2.48
ED (optimal dose, highest survival) [2]: 12.5 mg/kg
ED (30% increase of life-span) [2]: 0.77 mg/kg

COC(=O)[C@@H](NC(=O)SCCNC1=C(C)C(=O)C2=C(C1=O)[C@@H](COC(N)=O)[C@@]1(OC)[C@H]3N[C@H]3CN21)C(C)C [Compound 9, 7-N--[2-((S)--1-methoxycarbonyl-2-methylpropyl)-aminocarbonylthioethyl]mitomycin C]
(CI)c (Sarcoma 180 solid tumour): 0.81
ED50 (Sarcoma 180 solid tumour): 15.9 mg/kg
LD50 at 336 h [1]: 37.5 mg/kg
(ILSmax)c [2]: > 1.54
(TI)c [2]: 0.92
ED (optimal dose, highest survival) [2]: 12.5 mg/kg
ED (30% increase of life-span) [2]: 0.84 mg/kg

CCC(CC)NC(=O)SCCNC1=C(C)C(=O)C2=C(C1=O)[C@@H](COC(N)=O)[C@@]1(OC)[C@H]3N[C@H]3CN21 [Compound 11, 7-N--[2-(1-ethylpropyl)aminocarbonylthioethyl]mitomycin C]
(CI)c (Sarcoma 180 solid tumour): 1.40
ED50 (Sarcoma 180 solid tumour): 11.1 mg/kg
LD50 at 336 h [1]: 45 mg/kg
(ILSmax)c [2]: > 1.47
(TI)c [2]: 1.86
ED (optimal dose, highest survival) [2]: 25 mg/kg
ED (30% increase of life-span) [2]: 1.04 mg/kg

CO[C@@]12[C@H](COC(N)=O)C3=C(C(=O)C(C)=C(NCCSC(=O)NC4CCN(Cc5ccccc5)CC4)C3=O)N1C[C@@H]1N[C@@H]12 [Compound 12, 7-N--[2-(1-benzylpiperidine-4-yl)aminocarbonylthioethyl]mitomycin C]
(CI)c (Sarcoma 180 solid tumour): 1.61
ED50 (Sarcoma 180 solid tumour): 8.1 mg/kg
LD50 at 336 h [1]: 37.5 mg/kg
(ILSmax)c [2]: > 1.47
(TI)c [2]: > 1.10
ED (optimal dose, highest survival) [2]: 12.5 mg/kg
ED (30% increase of life-span) [2]: < 0.78 mg/kg

CO[C@@]12[C@H](COC(N)=O)C3=C(C(=O)C(C)=C(NCCSC(=O)NC(COCc4ccccc4)C(C)C)C3=O)N1C[C@@H]1N[C@@H]12 (stereo partly shown) [Compound 13]
(CI)c (Sarcoma 180 solid tumour): 2.01
ED50 (Sarcoma 180 solid tumour): 4.5 mg/kg
LD50 at 336 h [1]: 26.3 mg/kg
(ILSmax)c [2]: > 2.57
(TI)c [2]: 1.96
ED (optimal dose, highest survival) [2]: 7.5 mg/kg
ED (30% increase of life-span) [2]: 0.33 mg/kg

CO[C@@]12[C@H](COC(N)=O)C3=C(C(=O)C(C)=C(NCCSC(=O)N4CCC[C@H]4C(=O)NCc4ccccc4)C3=O)N1C[C@@H]1N[C@@H]12 [Compound 14, 7-N--[2-((S)--2-benzylaminocarbonylpyrrolidino)-carbonylthioethyl]mitomycin C]
(CI)c (Sarcoma 180 solid tumour): 2.23
ED50 (Sarcoma 180 solid tumour): 13.6 mg/kg
LD50 at 336 h [1]: 75 mg/kg
(ILSmax)c [2]: 1.44
(TI)c [2]: 0.93
ED (optimal dose, highest survival) [2]: 50 mg/kg
ED (30% increase of life-span) [2]: 3.46 mg/kg

CO[C@@]12[C@H](COC(N)=O)C3=C(C(=O)C(C)=C(NCCSC(=O)NCc4ccccc4)C3=O)N1C[C@@H]1N[C@@H]12 [Compound 22, 7-N--(2-benzylaminocarbonylthioethyl)mitomycin C]
(CI)c (Sarcoma 180 solid tumour): 1.44
ED50 (Sarcoma 180 solid tumour): 10.2 mg/kg
LD50 at 336 h [1]: 37.5 mg/kg
(ILSmax)c [2]: 1.43
(TI)c [2]: 3.36
ED (optimal dose, highest survival) [2]: 25 mg/kg
ED (30% increase of life-span) [2]: 0.62 mg/kg

CCNC(=O)SCCNC1=C(C)C(=O)C2=C(C1=O)[C@@H](COC(N)=O)[C@@]1(OC)[C@H]3N[C@H]3CN21 [Compound 23, 7-N--(2-ethylaminocarbonylthioethyl)mitomycin C]
(CI)c (Sarcoma 180 solid tumour): 2.48
ED50 (Sarcoma 180 solid tumour): 8.3 mg/kg
LD50 at 336 h [1]: 52.5 mg/kg
(ILSmax)c [2]: 1.16
(TI)c [2]: 3.28~1.64
ED (optimal dose, highest survival) [2]: 25 mg/kg
ED (30% increase of life-span) [2]: 0.33 mg/kg

CO[C@@]12[C@H](COC(N)=O)C3=C(C(=O)C(C)=C(NCCSC(=O)NCC(C)C)C3=O)N1C[C@@H]1N[C@@H]12 [Compound 24, 7-N--(2-isobutylaminocarbonylthioethyl)mitomycin C]
(CI)c (Sarcoma 180 solid tumour): 0.89
ED50 (Sarcoma 180 solid tumour): 9.9 mg/kg
LD50 at 336 h [1]: 22.5 mg/kg
(ILSmax)c [2]: 1.26
(TI)c [2]: 2.16
ED (optimal dose, highest survival) [2]: 25 mg/kg
ED (30% increase of life-span) [2]: 0.5 mg/kg

CO[C@@]12[C@H](COC(N)=O)C3=C(C(=O)C(C)=C(NCCSC(=O)N4CCC[C@H]4C(=O)Nc4ccc(O)cc4)C3=O)N1C[C@@H]1N[C@@H]12 [Compound 45, 7-N--{2-[(S)--2-(4-hydroxyanilino)carbonylpiperidino]carbonylthioethyl}mitomycin C]
(CI)c (Sarcoma 180 solid tumour): > 0.51
ED50 (Sarcoma 180 solid tumour): 89.1 mg/kg
LD50 at 336 h [1]: > 100 mg/kg

CO[C@@]12[C@H](COC(N)=O)C3=C(C(=O)C(C)=C(NCCSC(=O)NC(C(C)C)C(C)C)C3=O)N1C[C@@H]1N[C@@H]12 [Compound 46, 7-N--[2-(1-isopropyl-2-methylpropyl)aminocarbonylthioethyl]mitomycin C]
(CI)c (Sarcoma 180 solid tumour): 1.27
ED50 (Sarcoma 180 solid tumour): 12.5 mg/kg
LD50 at 336 h [1]: 37.5 mg/kg

CO[C@@]12[C@H](COC(N)=O)C3=C(C(=O)C(C)=C(NCCSC(=O)NC(CO)C(C)C)C3=O)N1C[C@@H]1N[C@@H]12 (stereo partly shown) [Compound 48, 7-N--[2-(1-hydroxymethyl-2-methylpropyl)aminocarbonylthioethyl]mitomycin C]
(CI)c (Sarcoma 180 solid tumour): 1.39
ED50 (Sarcoma 180 solid tumour): 14.3 mg/kg
LD50 at 336 h [1]: 45 mg/kg

CO[C@@]12[C@H](COC(N)=O)C3=C(C(=O)C(C)=C(NCCSC(=O)NCCc4ccccn4)C3=O)N1C[C@@H]1N[C@@H]12 [Compound 49, 7-N--[2-{2-(2-pyridyl)ethyl}aminocarbonylthioethyl]mitomycin C]
(CI)c (Sarcoma 180 solid tumour): 1.57
ED50 (Sarcoma 180 solid tumour): 22.8 mg/kg
LD50 at 336 h [1]: 75 mg/kg
